# Measurements published in patent US20100316728A1, “Therapeutic mask and Method of Treatment Employing the Same” (priority 2009, published 2010).
# Several values for one entry are separate records, joined by “and”; a condition that tells them apart may be missing. Identical values can stand only once.
# Columns and labels:
# Assay type in all cases: in vivo, human
# patients [1] = experiment: Numbness felt by patients using the mask (with Lidocaine); details: per patient
# From the text: A separate and distinct benefit has been discovered through the use of the instant invention. […] This aids the speed in which the process can be performed on a patient.
# patients [2] = experiment: Patient questionnaire on mask application, removal and skin reactions (dryness, burning, redness, itching, stinging); details: per patient, yes/no
# patients [3] = experiment: Pain level felt by patients using the mask (with Lidocaine)
# [4] = Table IX, CO2 procedure, unmasked side
# [5] = Table X, CO2 procedure, unmasked side
# [6] = Table XI, unmasked side, 0-10 scale
# [7] = Pain Rate section, Results with Lidocaine, right side = side without mask, per patient
# [8] = Results with Lidocaine, left side, mask on one side only, one value per patient, 10 = highest pain
# [9] = Results with Lidocaine, right side, mask on one side only, one value per patient, 10 = highest pain
# [10] = Table IX, CO2 procedure, unmasked side, per patient
# [11] = Table VIII Pain Data, unmasked side, per patient
# [12] = Table X, CO2 procedure, unmasked side, per patient
# [13] = Table XII, unmasked side, 0-10 scale, per patient
structure (smiles),measurement,setting,value
CCN(CC)CC(=O)Nc1c(C)cccc1C [Lidocaine],Numbness Cheeks- (Left Side),"patients [1]; 1-10 scale, cheeks, left side",4 and 8 and 9 and 3
same,Numbness Cheeks- (Right Side),"patients [1]; 1-10 scale, cheeks, right side",7 (3×) and 3 and 5 and 4 and 6
same,Numbness- Chin (Left Side),"patients [1]; 1-10 scale, chin, left side",4 and 8 and 9 and 7
same,Numbness- Chin (Right Side),"patients [1]; 1-10 scale, chin, right side",3 and 4 (2×) and 5 and 7 (2×) and 6
same,Numbness- Forehead (Left Side),"patients [1]; 1-10 scale, forehead, left side",4 and 8 and 9 and 2
same,Numbness- Forehead (Right Side),"patients [1]; 1-10 scale, forehead, right side",4 (2×) and 3 and 6 (2×) and 7 and 8
same,Numbness- Mouth (Left Side),"patients [1]; 1-10 scale, mouth, left side",4 and 8 and 9 and 5
same,Numbness- Mouth (Right Side),"patients [1]; 1-10 scale, mouth, right side",5 and 3 and 6 (2×) and 7 and 4 and 8
same,Numbness Cheeks- (Unmasked Side),patients [1]; [4],8 (3×) and 6 (4×)
same,Numbness- Chin (Unmasked Side),patients [1]; [4],9 and 6 (4×) and 8 (2×)
same,Numbness- Forehead (Unmasked Side),patients [1]; [4],9 and 6 (4×) and 8 (2×)
same,Numbness- Mouth (Unmasked Side),patients [1]; [4],8 (3×) and 6 (4×)
same,Numbness Cheeks- (Unmasked Side),patients [1]; [5],8 (3×) and 6 (4×)
same,Numbness- Chin (Unmasked Side),patients [1]; [5],9 and 6 (4×) and 8 (2×)
same,Numbness- Forehead (Unmasked Side),patients [1]; [5],9 and 6 (4×) and 8 (2×)
same,Numbness- Mouth (Unmasked Side),patients [1]; [5],8 (3×) and 6 (4×)
same,Numbness Average Unmasked Side,"patients [1]; Table XI summary, 0-10 scale",8.5 and 6 (4×) and 8 (2×)
same,Average,"patients [1]; Table XI, average numbness, unmasked side, 0-10 scale",8.5 and 6 (4×) and 8 (2×)
same,Numbness Cheeks- (Unmasked Side),patients [1]; [6],8 (3×) and 6 (4×)
same,Numbness- Chin (Unmasked Side),patients [1]; [6],9 and 6 (4×) and 8 (2×)
same,Numbness- Forehead (Unmasked Side),patients [1]; [6],9 and 6 (4×) and 8 (2×)
same,Numbness- Mouth (Unmasked Side),patients [1]; [6],8 (3×) and 6 (4×)
same,Dryness Right side,patients [2],no
same,Burning Right,patients [2]; right side,no (2×) and yes
same,Itching Right,patients [2]; right side,no
same,Redness Right,patients [2]; right side,yes (2×) and no
same,Stinging Right,patients [2]; right side,yes (2×) and no
same,Pain After proc. Cheeks (Left Side),"patients [3]; 1-10 scale, 1 least pain, 10 highest, after Fraxel or CO2 procedure, cheeks, left side",10 and 6 and 5
same,Pain After proc. Chin (Left Side),"patients [3]; 1-10 scale, 1 least pain, 10 highest, after Fraxel or CO2 procedure, chin, left side",10 and 6 and 5
same,Pain After proc. Forehead (Left Side),"patients [3]; 1-10 scale, 1 least pain, 10 highest, after Fraxel or CO2 procedure, forehead, left side",10 and 6
same,Average Right Side,"patients [3]; Pain Rate section, Results with Lidocaine, average pain, right side = side without mask, per patient",8.00 and 5.00 and 9.00 and 2.00
same,Pain After proc. Cheeks (Right Side),patients [3]; [7],8 and 5 and 9 and 2
same,Pain After proc. Chin (Right Side),patients [3]; [7],8 and 5 and 9 and 2
same,Pain After proc. Forehead (Right Side),patients [3]; [7],8 and 5 and 9 and 2
same,Pain After proc. Mouth (Right Side),patients [3]; [7],8 and 5 and 9 and 2
same,Average Left Side,"patients [3]; Results with Lidocaine, average pain of mouth, cheeks, forehead, chin, left side, per patient",10.00 and 6.00 and 5.00
same,Average Right Side,"patients [3]; Results with Lidocaine, average pain of mouth, cheeks, forehead, chin, right side, per patient",4.00 and 8.25 and 9.25 and 9.00 and 4.50 and 10.00
same,Pain After proc. Cheeks (Left Side),patients [3]; [8],10 and 6 and 5
same,Pain After proc. Chin (Left Side),patients [3]; [8],10 and 6 and 5
same,Pain After proc. Forehead (Left Side),patients [3]; [8],10 and 6 (2×)
same,Pain After proc. Mouth (Left Side),patients [3]; [8],10 and 6 and 4
same,Pain After proc. Cheeks (Right Side),patients [3]; [9],4 and 7 and 8 and 9 (2×) and 10
same,Pain After proc. Chin (Right Side),patients [3]; [9],4 and 6 (2×) and 8 and 9 and 10
same,Pain After proc. Forehead (Right Side),patients [3]; [9],4 (2×) and 10 (2×) and 8 and 9
same,Pain After proc. Mouth (Right Side),patients [3]; [9],4 (2×) and 10 (2×) and 8 and 9
same,Pain After proc. Cheeks (Unmasked Side),patients [3]; [10],8 (3×) and 9 and 2 and 5 and 6
same,Pain After proc. Chin (Unmasked Side),patients [3]; [10],8 (3×) and 9 and 2 and 5 and 6
same,Pain After proc. Forehead (Unmasked Side),patients [3]; [10],8 (3×) and 9 and 2 and 5 and 7
same,Pain After proc. Mouth (Unmasked Side),patients [3]; [10],8 (3×) and 9 and 2 and 5 and 6
same,Average Pain (Unmasked Side),patients [3]; [11],8 (3×) and 9 and 2 and 5 and 6.3
same,Pain After proc. Cheeks (Unmasked Side),patients [3]; [11],8 (3×) and 9 and 2 and 5 and 6
same,Pain After proc. Chin (Unmasked Side),patients [3]; [11],8 (3×) and 9 and 2 and 5 and 6
same,Pain After proc. Forehead (Unmasked Side),patients [3]; [11],8 (3×) and 9 and 2 and 5 and 7
same,Pain After proc. Mouth (Unmasked Side),patients [3]; [11],8 (3×) and 9 and 2 and 5 and 6
same,Pain After proc. Cheeks (Unmasked Side),patients [3]; [12],8 (3×) and 9 and 2 and 5 and 6
same,Pain After proc. Chin (Unmasked Side),patients [3]; [12],8 (3×) and 9 and 2 and 5 and 6
same,Pain After proc. Forehead (Unmasked Side),patients [3]; [12],8 (3×) and 9 and 2 and 5 and 7
same,Pain After proc. Mouth (Unmasked Side),patients [3]; [12],8 (3×) and 9 and 2 and 5 and 6
same,Average Pain (Unmasked Side),"patients [3]; Table XII summary, 0-10 scale, per patient",8 (3×) and 9 and 2 and 5 and 6.3
same,Average Pain (Unmasked Side),patients [3]; [13],8 (3×) and 9 and 2 and 5 and 6.3
same,Pain After proc. Cheeks (Unmasked Side),patients [3]; [13],8 (3×) and 9 and 2 and 5 and 6
same,Pain After proc. Chin (Unmasked Side),patients [3]; [13],8 (3×) and 9 and 2 and 5 and 6
same,Pain After proc. Forehead (Unmasked Side),patients [3]; [13],8 (3×) and 9 and 2 and 5 and 7
same,Pain After proc. Mouth (Unmasked Side),patients [3]; [13],8 (3×) and 9 and 2 and 5 and 6
